Source: patent US20210038607A1, “OXADIAZOLYLTHIOPHENE DERIVATIVES USEFUL AS HISTONE DEACETYLASE INHIBITORS” (Karus Therapeutics Limited, priority 2018, published 2021)

How the values were obtained:
Recombinant human HDAC6 = target: T1, Recombinant human HDAC6 (Homo sapiens, UniProt Q9UBN7); assay: HDAC6 biochemical assay, AMC-labeled peptide substrate; details: HDAC6; read-out: HDAC Isoform IC50 (nM) 6
T1 construct: full length, MW=159 kDa; GST (N); host or cells: Sf9 insect cells (baculovirus)
T1 sequence (Q9UBN7 1-1215): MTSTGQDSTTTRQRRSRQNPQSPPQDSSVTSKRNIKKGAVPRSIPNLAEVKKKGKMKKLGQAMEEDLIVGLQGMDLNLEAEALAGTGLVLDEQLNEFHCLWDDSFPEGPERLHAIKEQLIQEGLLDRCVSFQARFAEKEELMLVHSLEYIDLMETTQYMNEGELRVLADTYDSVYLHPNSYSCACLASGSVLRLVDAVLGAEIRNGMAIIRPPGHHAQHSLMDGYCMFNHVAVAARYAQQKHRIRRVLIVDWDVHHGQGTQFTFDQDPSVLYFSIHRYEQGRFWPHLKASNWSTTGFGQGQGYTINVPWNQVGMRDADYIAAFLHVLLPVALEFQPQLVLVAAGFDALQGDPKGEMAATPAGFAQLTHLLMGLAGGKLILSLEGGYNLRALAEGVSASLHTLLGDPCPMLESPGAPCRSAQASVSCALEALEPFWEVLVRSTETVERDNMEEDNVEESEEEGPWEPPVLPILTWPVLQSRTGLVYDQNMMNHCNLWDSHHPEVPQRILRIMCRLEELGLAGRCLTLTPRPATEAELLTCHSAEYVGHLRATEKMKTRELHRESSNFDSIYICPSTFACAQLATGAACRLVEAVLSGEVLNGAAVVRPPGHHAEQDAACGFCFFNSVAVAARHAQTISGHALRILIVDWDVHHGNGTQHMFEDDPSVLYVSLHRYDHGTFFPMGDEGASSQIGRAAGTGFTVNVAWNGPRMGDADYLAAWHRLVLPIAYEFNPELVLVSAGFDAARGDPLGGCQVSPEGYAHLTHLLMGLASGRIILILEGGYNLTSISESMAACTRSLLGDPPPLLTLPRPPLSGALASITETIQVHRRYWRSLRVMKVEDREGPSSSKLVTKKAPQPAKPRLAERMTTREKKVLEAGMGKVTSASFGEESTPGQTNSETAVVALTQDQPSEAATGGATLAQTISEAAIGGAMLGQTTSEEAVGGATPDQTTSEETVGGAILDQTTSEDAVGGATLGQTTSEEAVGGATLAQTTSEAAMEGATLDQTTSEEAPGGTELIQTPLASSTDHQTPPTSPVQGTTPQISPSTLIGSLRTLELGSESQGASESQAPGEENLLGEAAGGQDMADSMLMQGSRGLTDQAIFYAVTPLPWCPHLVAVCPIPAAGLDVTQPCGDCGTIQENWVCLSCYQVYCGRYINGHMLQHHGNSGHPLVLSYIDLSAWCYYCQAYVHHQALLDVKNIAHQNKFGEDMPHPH
Outline: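 Two-step fluorogenic read-out: enzyme deacetylates 50 μM RHKK(Ac)AMC for 1 h at 30° C in pH 8.0 Tris buffer with BSA and 1% DMSO, then developer cleavage gives signal at Ex 360/Em 460. Enzyme: 0.3 ng/ul recombinant full-length human HDAC6, GST-tagged, Sf9-expressed.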

Human HDAC1 = target: T2, Human HDAC1 (Homo sapiens, UniProt Q13547); assay: HDAC1 biochemical assay, AMC-labeled peptide substrate; details: read-out: HDAC Isoform IC50 (nM) 1
T2 construct: full length with C-terminal His-tag and C-terminal FLAG-tag; His (C); FLAG (C); host or cells: baculovirus expression system
T2 sequence (Q13547 whole entry, canonical isoform): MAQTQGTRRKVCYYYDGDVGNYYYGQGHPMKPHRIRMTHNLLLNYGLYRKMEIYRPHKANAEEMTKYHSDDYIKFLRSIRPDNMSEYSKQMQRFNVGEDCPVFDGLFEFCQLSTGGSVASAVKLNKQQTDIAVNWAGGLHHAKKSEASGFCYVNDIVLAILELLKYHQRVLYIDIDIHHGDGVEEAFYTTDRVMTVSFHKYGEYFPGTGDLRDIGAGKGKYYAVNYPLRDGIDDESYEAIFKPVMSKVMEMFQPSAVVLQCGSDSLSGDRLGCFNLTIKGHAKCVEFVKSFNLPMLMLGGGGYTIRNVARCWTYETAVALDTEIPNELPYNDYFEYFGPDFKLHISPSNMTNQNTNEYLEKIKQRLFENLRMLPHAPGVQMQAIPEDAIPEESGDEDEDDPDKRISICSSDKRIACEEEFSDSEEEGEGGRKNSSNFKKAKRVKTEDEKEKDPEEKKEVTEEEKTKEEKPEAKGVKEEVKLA
Outline: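 Two-step fluorogenic read: HDAC1 deacetylates 50 μM acetyl-lysine AMC peptide RHKK(Ac)AMC for 1 h at 30° C (pH 8.0, 1% DMSO, with compound), then developer digests the product for fluorescence at Ex/Em 360/460. Enzyme is full-length human, His/FLAG-tagged, insect-cell expressed, at 0.3 ng/ul.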

Human HDAC4 = target: T3, Human HDAC4 (Homo sapiens, UniProt P56524); assay: HDAC4 biochemical assay, class IIa-specific substrate; details: read-out: HDAC Isoform IC50 (nM) 4
T3 construct: amino acids 627-1085 with N-terminal GST tag; GST (N); host or cells: baculovirus expression system
T3 sequence (P56524 627-1084 limits assumed): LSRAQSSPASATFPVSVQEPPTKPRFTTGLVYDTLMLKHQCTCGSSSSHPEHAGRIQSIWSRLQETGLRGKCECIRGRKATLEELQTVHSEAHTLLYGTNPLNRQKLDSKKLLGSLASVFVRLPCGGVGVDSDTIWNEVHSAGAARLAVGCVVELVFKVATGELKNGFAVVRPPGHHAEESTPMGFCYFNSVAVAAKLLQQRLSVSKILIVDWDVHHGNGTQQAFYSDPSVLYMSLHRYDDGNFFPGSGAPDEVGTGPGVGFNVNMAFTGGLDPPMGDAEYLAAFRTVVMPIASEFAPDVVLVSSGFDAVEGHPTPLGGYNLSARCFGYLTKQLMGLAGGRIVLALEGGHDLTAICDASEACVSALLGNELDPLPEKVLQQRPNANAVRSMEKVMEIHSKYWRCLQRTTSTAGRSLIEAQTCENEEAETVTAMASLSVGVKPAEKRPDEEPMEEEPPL
Outline: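 Two-step fluorogenic read-out: deacetylated BOC-Lys(trifluoroacetyl)-AMC (50 μM) was digested by developer and measured at Ex/Em 360/460. Deacetylation by 0.004 ng/ul HDAC4 (aa 627-1085, N-terminal GST) ran 30 min at room temperature, pH 8.0 Tris buffer, 1 mg/mL BSA, 1% DMSO.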

| SMILES | IC50 (Recombinant human HDAC6) [nM] | IC50 (Human HDAC1) [nM] | IC50 (Human HDAC4) [nM] |
| --- | --- | --- | --- |
| O=C(c1cnnc(N(Cc2ccc(-c3noc(C(F)(F)F)n3)s2)c2cnccn2)c1)N1CC(C(F)F)C1 [Example GK, 5-[3-(Difluoromethyl)azetidine-1-carbonyl]-N-(pyrazin-2-yl)-N-({5-[5-(trifluoromethyl)-1,2,4-oxadiazol-3-yl]thiophen-2-yl}methyl)pyridazin-3-amine] | ≤ 500 | ≤ 10000 | ≤ 1000 |
| FC(F)(F)c1nc(-c2ccc(CN(c3ccccn3)c3ccccn3)s2)no1 [Example U, N-(Pyridin-2-yl)-N-({5-[5-(trifluoromethyl)-1,2,4-oxadiazol-3-yl]thiophen-2-yl}methyl)pyridin-2-amine] | ≤ 1000 | > 10000 | ≤ 10000 |
| O=C(c1cnnc(N(Cc2ccc(-c3noc(C(F)(F)F)n3)s2)c2cnccn2)c1)N1CC2CCC(C1)O2 [Example GA, 5-{8-Oxa-3-azabicyclo[3.2.1]octane-3-carbonyl}-N-(pyrazin-2-yl)-N-({5-[5-(trifluoromethyl)-1,2,4-oxadiazol-3-yl]thiophen-2-yl}methyl)pyridazin-3-amine] | ≤ 500 | > 10000 | ≤ 10000 |
| O=C(c1ccc(N(Cc2ccc(-c3noc(C(F)(F)F)n3)s2)c2cnccn2)nn1)N1CCCCC1 [Example FG, 6-(Piperidine-1-carbonyl)-N-(pyrazin-2-yl)-N-({5-[5-(trifluoromethyl)-1,2,4-oxadiazol-3-yl]thiophen-2-yl}methyl)pyridazin-3-amine] | ≤ 500 | > 10000 | ≤ 500 |
| COc1cncc(N(Cc2ccc(-c3noc(C(F)(F)F)n3)s2)c2cnccn2)n1 [Example BQ, 6-Methoxy-N-(pyrazin-2-yl)-N-({5-[5-(trifluoromethyl)-1,2,4-oxadiazol-3-yl]thiophen-2-yl}methyl)pyrazin-2-amine] | ≤ 500 | > 10000 | ≤ 10000 |
| CNC(=O)c1ccc(N(Cc2ccc(-c3noc(C(F)(F)F)n3)s2)c2cnccn2)nn1 [Example FC, N-Methyl-6-[(pyrazin-2-yl)({5-[5-(trifluoromethyl)-1,2,4-oxadiazol-3-yl]thiophen-2-yl}methyl)amino]pyridazine-3-carboxamide] | ≤ 500 | ≤ 10000 | ≤ 1000 |
| O=C(c1cncc(N(Cc2ccc(-c3noc(C(F)(F)F)n3)s2)c2cnccn2)c1)N1CCOCC1 [Example GR, N-[5-(Morpholine-4-carbonyl)pyridin-3-yl]-N-({5-[5-(trifluoromethyl)-1,2,4-oxadiazol-3-yl]thiophen-2-yl}methyl)pyrazin-2-amine] | ≤ 10000 | > 10000 | ≤ 1000 |
| O=C(c1ccc(N(Cc2ccc(-c3noc(C(F)(F)F)n3)s2)c2cnccn2)nn1)N1C[C@@H]2C[C@H]1C[S@@+]2[O-] [Example FR, (1S,2R,4S)-5-{6-[(Pyrazin-2-yl)({5-[5-(trifluoromethyl)-1,2,4-oxadiazol-3-yl]thiophen-2-yl}methyl)amino]pyridazine-3-carbonyl}-2-thia-5-azabicyclo[2.2.1]heptan-2-ium-2-olate] | ≤ 500 | ≤ 10000 | ≤ 500 |
| CC(C)OC1CN(C(=O)c2cnnc(N(Cc3ccc(-c4noc(C(F)(F)F)n4)s3)c3cnccn3)c2)C1 [Example GC, 5-[3-(Propan-2-yloxy)azetidine-1-carbonyl]-N-(pyrazin-2-yl)-N-({5-[5-(trifluoromethyl)-1,2,4-oxadiazol-3-yl]thiophen-2-yl}methyl)pyridazin-3-amine] | ≤ 500 | > 10000 | ≤ 1000 |
| FC(F)(F)c1cnnc(N(Cc2ccc(-c3noc(C(F)(F)F)n3)s2)c2cc(C(F)(F)F)cnn2)c1 [Example EU, 5-(Trifluoromethyl)-N-({5-[5-(trifluoromethyl)-1,2,4-oxadiazol-3-yl]thiophen-2-yl}methyl)-N-[5-(trifluoromethyl)pyridazin-3-yl]pyridazin-3-amine] | ≤ 500 | > 10000 | ≤ 10000 |
| COC1CN(Cc2ccnc(N(Cc3ccc(-c4noc(C(F)(F)F)n4)s3)c3cnccn3)c2)C1 [Example GH, N-{4-[(3-Methoxyazetidin-1-yl)methyl]pyridin-2-yl}-N-({5-[5-(trifluoromethyl)-1,2,4-oxadiazol-3-yl]thiophen-2-yl}methyl)pyrazin-2-amine] | ≤ 500 | > 10000 | ≤ 10000 |
| O=C(c1ccc(N(Cc2ccc(-c3noc(C(F)(F)F)n3)s2)c2cnccn2)nn1)N1CCC1 [Example FF, 6-(Azetidine-1-carbonyl)-N-(pyrazin-2-yl)-N-({5-[5-(trifluoromethyl)-1,2,4-oxadiazol-3-yl]thiophen-2-yl}methyl)pyridazin-3-amine] | ≤ 500 | ≤ 10000 | ≤ 500 |
| FC(F)(F)c1nc(-c2ccc(CN(c3cnccn3)c3cc(CN4CCCC4)ccn3)s2)no1 [Example GG, N-{4-[(Pyrrolidin-1-yl)methyl]pyridin-2-yl}-N-({5-[5-(trifluoromethyl)-1,2,4-oxadiazol-3-yl]thiophen-2-yl}methyl)pyrazin-2-amine] | ≤ 1000 | > 10000 | ≤ 1000 |
| O=C(c1cnnc(N(Cc2ccc(-c3noc(C(F)(F)F)n3)s2)c2cnccn2)c1)N1CCCC1 [Example EA, N-(Pyrazin-2-yl)-5-(pyrrolidine-1-carbonyl)-N-({5-[5-(trifluoromethyl)-1,2,4-oxadiazol-3-yl]thiophen-2-yl}methyl)pyridazin-3-amine] | ≤ 500 | > 10000 | ≤ 10000 |
| O=C(c1cnnc(N(Cc2ccc(-c3noc(C(F)(F)F)n3)s2)c2cnccn2)c1)N1CCS(=O)(=O)CC1 [Example ED, 4-{6-[(Pyrazin-2-yl)({5-[5-(trifluoromethyl)-1,2,4-oxadiazol-3-yl]thiophen-2-yl}methyl)amino]pyridazine-4-carbonyl}-1λ^6-thiomorpholine-1,1-dione] | ≤ 500 | > 10000 | ≤ 10000 |
| OC1(c2cnnc(N(Cc3ccc(-c4noc(C(F)(F)F)n4)s3)c3cnccn3)c2)COC1 [Example GW, 3-{6-[(Pyrazin-2-yl)({5-[5-(trifluoromethyl)-1,2,4-oxadiazol-3-yl]thiophen-2-yl}methyl)amino]pyridazin-4-yl}oxetan-3-ol] | ≤ 500 | > 10000 | ≤ 10000 |
| FC(F)(F)c1nc(-c2ccc(CN(c3cnccn3)c3cnc(N4CCOCC4)cn3)s2)no1 [Example BM, 5-(Morpholin-4-yl)-N-(pyrazin-2-yl)-N-({5-[5-(trifluoromethyl)-1,2,4-oxadiazol-3-yl]thiophen-2-yl}methyl)pyrazin-2-amine] | ≤ 10000 | ≤ 10000 | ≤ 1000 |
| O=C(O)c1cnnc(N(Cc2ccc(-c3noc(C(F)(F)F)n3)s2)c2cc(C(F)(F)F)cnn2)c1 [Example ES, 6-[({5-[5-(Trifluoromethyl)-1,2,4-oxadiazol-3-yl]thiophen-2-yl}methyl)[5-(trifluoromethyl)pyridazin-3-yl]amino]pyridazine-4-carboxylicacid] | ≤ 500 | > 10000 | ≤ 10000 |
